Experimental data taken from publication PMC5218480 (PLoS ONE, 2017).

System: MV-4-11 cells
Assay: Gene expression microarray analysis (Affymetrix PrimeView) and GSEA
Type: cell-based, human
Design: RFU PODN (11730768_x_at) / Fold change /veh PODN (11730768_x_at) / RFU LINC00158 (11744669_a_at) / Fold change /veh LINC00158 (11744669_a_at) / RFU DUSP10 (11751237_a_at) / Fold change /veh DUSP10 (11751237_a_at) / RFU ID3 (11757404_x_at) / Fold change /veh ID3 (11757404_x_at) / RFU PLEKHG5 (11737974_s_at) / Fold change /veh PLEKHG5 (11737974_s_at) / RFU LRRC4B (11730491_at) / Fold change /veh LRRC4B (11730491_at) / RFU GIMAP4 (11747438_a_at) / Fold change /veh GIMAP4 (11747438_a_at) / RFU KRT8 (11758183_x_at) / Fold change /veh KRT8 (11758183_x_at) / RFU CNN1 (11734310_a_at) / Fold change /veh CNN1 (11734310_a_at) / RFU VPS37D (11726825_at) / Fold change /veh VPS37D (11726825_at) / RFU C10orf10 (11716522_x_at) / Fold change /veh C10orf10 (11716522_x_at) / RFU KIR2DL2 /// KIR2DL4 /// KIR2DL5A /// KIR2DL5B /// KIR2DS1 /// KIR2DS2 /// KIR2DS3 /// KIR2DS4 /// KIR3DL3 /// KIR3DL3 /// KIR3DS1 (11738374_at) / Fold change /veh KIR2DL2 /// KIR2DL4 /// KIR2DL5A /// KIR2DL5B /// KIR2DS1 /// KIR2DS2 /// KIR2DS3 /// KIR2DS4 /// KIR3DL3 /// KIR3DL3 /// KIR3DS1 (11738374_at) / RFU C1QL1 (11718748_at) / Fold change /veh C1QL1 (11718748_at) / RFU TMPRSS4 (11747572_a_at) / Fold change /veh TMPRSS4 (11747572_a_at) / RFU HAMP (11756126_x_at) / Fold change /veh HAMP (11756126_x_at) / RFU RNFT2 (11725882_a_at) / Fold change /veh RNFT2 (11725882_a_at) / RFU NR4A2 (11747474_a_at) / Fold change /veh NR4A2 (11747474_a_at) / RFU ABCC12 (11746883_a_at) / Fold change /veh ABCC12 (11746883_a_at) / RFU TMEM136 (11760407_x_at) / Fold change /veh TMEM136 (11760407_x_at) / RFU CLDN22 /// WWC2 (11732394_at) / Fold change /veh CLDN22 /// WWC2 (11732394_at) / RFU HLA-DPB1 (11760878_x_at) / Fold change /veh HLA-DPB1 (11760878_x_at) / RFU SPINT1 (11716480_a_at) / Fold change /veh SPINT1 (11716480_a_at) / RFU GAP43 (11754022_s_at) / Fold change /veh GAP43 (11754022_s_at) / RFU A4GNT (11735810_at) / Fold change /veh A4GNT (11735810_at) / RFU PRB3 (11715151_x_at) / Fold change /veh PRB3 (11715151_x_at) / RFU TUBB4B (11761932_at) / Fold change /veh TUBB4B (11761932_at) / RFU CAPN14 (11732068_a_at) / Fold change /veh CAPN14 (11732068_a_at) / RFU TMCC2 (11721928_a_at) / Fold change /veh TMCC2 (11721928_a_at) / RFU IRGQ (11745062_a_at) / Fold change /veh IRGQ (11745062_a_at) / RFU FAM174B (11720279_a_at) / Fold change /veh FAM174B (11720279_a_at) / RFU TMPRSS4 (11748680_a_at) / Fold change /veh TMPRSS4 (11748680_a_at) / RFU FAM212B (11763350_a_at) / Fold change /veh FAM212B (11763350_a_at) / RFU PLEKHG5 (11743358_a_at) / Fold change /veh PLEKHG5 (11743358_a_at) / RFU ZSCAN30 (11745921_a_at) / Fold change /veh ZSCAN30 (11745921_a_at) / RFU CMKLR1 (11741424_a_at) / Fold change /veh CMKLR1 (11741424_a_at) / RFU LOC101060620 /// MAPK8IP1 (11723275_at) / Fold change /veh LOC101060620 /// MAPK8IP1 (11723275_at) / RFU SPTSSB (11747773_x_at) / Fold change /veh SPTSSB (11747773_x_at) / RFU PRSS12 (11739890_at) / Fold change /veh PRSS12 (11739890_at) / RFU BIN1 (11741810_x_at) / Fold change /veh BIN1 (11741810_x_at) / RFU WNT11 (11732464_a_at) / Fold change /veh WNT11 (11732464_a_at) / RFU C10orf10 (11716521_a_at) / Fold change /veh C10orf10 (11716521_a_at) / RFU C5orf56 (11738089_at) / Fold change /veh C5orf56 (11738089_at) / RFU CYB561 (11721691_x_at) / Fold change /veh CYB561 (11721691_x_at) / RFU ANKRD19P (11752326_a_at) / Fold change /veh ANKRD19P (11752326_a_at) / RFU OR2T12 /// OR2T33 /// OR2T8 (11738714_s_at) / Fold change /veh OR2T12 /// OR2T33 /// OR2T8 (11738714_s_at) / RFU VCAN (11748164_a_at) / Fold change /veh VCAN (11748164_a_at) / RFU JSRP1 (11732532_at) / Fold change /veh JSRP1 (11732532_at) / RFU KRTAP10-11 (11738290_x_at) / Fold change /veh KRTAP10-11 (11738290_x_at) / RFU MYO3A (11730013_a_at) / Fold change /veh MYO3A (11730013_a_at) / RFU EBF3 (11725865_a_at) / Fold change /veh EBF3 (11725865_a_at) / RFU CAMK2N1 (11719241_x_at) / Fold change /veh CAMK2N1 (11719241_x_at) / RFU C5orf56 (11738088_a_at) / Fold change /veh C5orf56 (11738088_a_at) / RFU OLFML3 (11715873_a_at) / Fold change /veh OLFML3 (11715873_a_at) / RFU LOC100653217 /// NTM (11731650_a_at) / Fold change /veh LOC100653217 /// NTM (11731650_a_at) / RFU MAPK11 (11762145_a_at) / Fold change /veh MAPK11 (11762145_a_at) / RFU FIZ1 (11724087_x_at) / Fold change /veh FIZ1 (11724087_x_at) / RFU OASL (11726364_x_at) / Fold change /veh OASL (11726364_x_at) / RFU SOX15 (11748057_x_at) / Fold change /veh SOX15 (11748057_x_at) / RFU CD79A (11719716_a_at) / Fold change /veh CD79A (11719716_a_at) / RFU HIST1H1D (11736915_at) / Fold change /veh HIST1H1D (11736915_at) / RFU CASKIN2 (11723855_a_at) / Fold change /veh CASKIN2 (11723855_a_at) / RFU LOC730098 (11760151_x_at) / Fold change /veh LOC730098 (11760151_x_at) / RFU OR4N2 (11742367_at) / Fold change /veh OR4N2 (11742367_at) / RFU PRRT2 (11749266_a_at) / Fold change /veh PRRT2 (11749266_a_at) / RFU SNX32 (11753110_a_at) / Fold change /veh SNX32 (11753110_a_at) / RFU CDHR5 (11726645_a_at) / Fold change /veh CDHR5 (11726645_a_at) / RFU RCAN1 (11760418_a_at) / Fold change /veh RCAN1 (11760418_a_at) / RFU FAM167A (11723789_a_at) / Fold change /veh FAM167A (11723789_a_at) / RFU FAM26E (11764081_at) / Fold change /veh FAM26E (11764081_at) / RFU ISYNA1 (11749810_s_at) / Fold change /veh ISYNA1 (11749810_s_at) / RFU ACY1 (11761880_at) / Fold change /veh ACY1 (11761880_at) / RFU 11764098_at / Fold change /veh 11764098_at / RFU SAMD14 (11745864_x_at) / Fold change /veh SAMD14 (11745864_x_at) / RFU NPB (11741838_a_at) / Fold change /veh NPB (11741838_a_at) / RFU TMPRSS6 (11731388_a_at) / Fold change /veh TMPRSS6 (11731388_a_at) / RFU KRTAP10-2 (11738614_at) / Fold change /veh KRTAP10-2 (11738614_at) / RFU ARHGAP8 /// PRR5-ARHGAP8 (11727945_x_at) / Fold change /veh ARHGAP8 /// PRR5-ARHGAP8 (11727945_x_at) / RFU KRTAP5-7 /// NADSYN1 (11734609_at) / Fold change /veh KRTAP5-7 /// NADSYN1 (11734609_at) / RFU RASL12 (11751679_a_at) / Fold change /veh RASL12 (11751679_a_at) / RFU CDKN2B (11736163_a_at) / Fold change /veh CDKN2B (11736163_a_at) / RFU PRF1 (11729649_at) / Fold change /veh PRF1 (11729649_at) / RFU, ZNF638 /// ZNF638-IT1 / Fold change vs veh, ZNF638 /// ZNF638-IT1 / RFU, PANK3 / Fold change vs veh, PANK3 / RFU, SH3YL1 / Fold change vs veh, SH3YL1 / RFU, ZEB2 / Fold change vs veh, ZEB2 / RFU, NRIP1 / Fold change vs veh, NRIP1 / RFU, PTTG1IP / Fold change vs veh, PTTG1IP / RFU, CAPN2 / Fold change vs veh, CAPN2 / RFU, MED14 / Fold change vs veh, MED14 / RFU, SNORA58 / Fold change vs veh, SNORA58 / RFU, C1orf63 / Fold change vs veh, C1orf63 / RFU, LRRFIP1 / Fold change vs veh, LRRFIP1 / RFU, NDUFAF7 / Fold change vs veh, NDUFAF7 / RFU, SLC12A2 / Fold change vs veh, SLC12A2 / RFU, IBTK / Fold change vs veh, IBTK / RFU, ESF1 / Fold change vs veh, ESF1 / Fold change vs veh, TMEM50B / RFU, TAOK1 / Fold change vs veh, TAOK1 / RFU, ACBD3 / Fold change vs veh, ACBD3 / RFU, TMA16 / Fold change vs veh, TMA16 / RFU, RWDD3 / Fold change vs veh, RWDD3 / RFU, BCAT1 / Fold change vs veh, BCAT1 / RFU, EDEM3 / Fold change vs veh, EDEM3 / RFU, TMEM33 / Fold change vs veh, TMEM33 / RFU, WDR75 / Fold change vs veh, WDR75 / RFU, AHCTF1 / Fold change vs veh, AHCTF1 / RFU, TFRC / Fold change vs veh, TFRC / RFU, ZDHHC17 / Fold change vs veh, ZDHHC17 / RFU, NOM1 / Fold change vs veh, NOM1 / RFU, ARL8B / Fold change vs veh, ARL8B / RFU, ZBTB11 / Fold change vs veh, ZBTB11 / RFU, TAMM41 / Fold change vs veh, TAMM41 / RFU, KIAA1704 /// LOC100996395 / Fold change vs veh, KIAA1704 /// LOC100996395 / RFU, ING1 / Fold change vs veh, ING1 / RFU, TRMT61B / Fold change vs veh, TRMT61B / RFU, FUBP3 / Fold change vs veh, FUBP3 / RFU, TP53 / Fold change vs veh, TP53 / RFU, TNKS2 / Fold change vs veh, TNKS2 / RFU, ZFP14 / Fold change vs veh, ZFP14 / RFU, ACTR2 / Fold change vs veh, ACTR2 / RFU, PPP3R1 / Fold change vs veh, PPP3R1 / RFU, PIK3R1 / Fold change vs veh, PIK3R1 / RFU, HNRNPA1 / Fold change vs veh, HNRNPA1 / RFU, RNF170 / Fold change vs veh, RNF170 / RFU, ZNF28 / Fold change vs veh, ZNF28 / RFU, RNGTT / Fold change vs veh, RNGTT / RFU, OGT / Fold change vs veh, OGT / RFU, BRD1 / Fold change vs veh, BRD1 / RFU, MARS / Fold change vs veh, MARS / RFU, ZNF655 / Fold change vs veh, ZNF655 / RFU, FAHD1 / Fold change vs veh, FAHD1 / RFU, BDP1 / Fold change vs veh, BDP1 / RFU, LRRCC1 / Fold change vs veh, LRRCC1 / RFU, ARID1A / Fold change vs veh, ARID1A / RFU, ZNF146 / Fold change vs veh, ZNF146 / RFU, ZNF330 / Fold change vs veh, ZNF330 / RFU, GPN3 / Fold change vs veh, GPN3 / RFU, C9orf123 / Fold change vs veh, C9orf123 / RFU, N4BP2L2 / Fold change vs veh, N4BP2L2 / RFU, ARFIP1 / Fold change vs veh, ARFIP1 / RFU, FAM179B / Fold change vs veh, FAM179B / RFU, BCL10 / Fold change vs veh, BCL10 / RFU, UHRF1BP1L / Fold change vs veh, UHRF1BP1L / RFU, BET1 / Fold change vs veh, BET1 / RFU, CNOT2 / Fold change vs veh, CNOT2 / RFU, ZNF268 / Fold change vs veh, ZNF268 / Fold change vs veh, ZNF507 / RFU, DGCR2 / Fold change vs veh, DGCR2 / RFU, WDSUB1 / Fold change vs veh, WDSUB1 / Fold change vs veh, HSP90B1 /// MIR3652 / RFU, ADSS / Fold change vs veh, ADSS / RFU, GK / Fold change vs veh, GK / RFU, ZNF148 / Fold change vs veh, ZNF148 / RFU, TAF9 / Fold change vs veh, TAF9 / RFU, SLC1A5 / Fold change vs veh, SLC1A5 / RFU, SLMO2 / Fold change vs veh, SLMO2 / RFU, ABCC4 / Fold change vs veh, ABCC4 / RFU, LOC101060439 /// RAP1B / Fold change vs veh, LOC101060439 /// RAP1B / RFU, RFX7 / Fold change vs veh, RFX7 / RFU, GTPBP10 / Fold change vs veh, GTPBP10 / RFU, CNEP1R1 / Fold change vs veh, CNEP1R1 / RFU, BIVM-ERCC5 /// ERCC5 / Fold change vs veh, BIVM-ERCC5 /// ERCC5 / RFU, ILF3 / Fold change vs veh, ILF3 / RFU 11762660_at / Fold change /veh 11762660_at / RFU VCAN (11757783_s_at) / Fold change /veh VCAN (11757783_s_at) / RFU DDX43 (11728927_at) / Fold change /veh DDX43 (11728927_at) / RFU KRT8 (11758188_x_at) / Fold change /veh KRT8 (11758188_x_at) / RFU NKD1 (11759106_at) / Fold change /veh NKD1 (11759106_at) / RFU SRD5A1 (11742802_a_at) / Fold change /veh SRD5A1 (11742802_a_at) / RFU TPSAB1 /// TPSB2 (11721975_s_at) / Fold change /veh TPSAB1 /// TPSB2 (11721975_s_at) / RFU GSTM3 (11746129_a_at) / Fold change /veh GSTM3 (11746129_a_at) / RFU IL23R (11737362_x_at) / Fold change /veh IL23R (11737362_x_at) / RFU TMEM51 (11727254_a_at) / Fold change /veh TMEM51 (11727254_a_at) / RFU PIWIL2 (11732686_x_at) / Fold change /veh PIWIL2 (11732686_x_at) / RFU ORM1 (11744905_x_at) / Fold change /veh ORM1 (11744905_x_at) / RFU CCDC152 (11743942_at) / Fold change /veh CCDC152 (11743942_at) / RFU ECM1 (11717891_a_at) / Fold change /veh ECM1 (11717891_a_at) / RFU IL23R (11748794_a_at) / Fold change /veh IL23R (11748794_a_at) / RFU TNFAIP8L3 (11732012_x_at) / Fold change /veh TNFAIP8L3 (11732012_x_at) / RFU MBOAT4 (11741988_at) / Fold change /veh MBOAT4 (11741988_at) / RFU 11764193_at / Fold change /veh 11764193_at / RFU TMEM53 (11763286_at) / Fold change /veh TMEM53 (11763286_at) / RFU MAGEB2 (11727129_at) / Fold change /veh MAGEB2 (11727129_at) / RFU TMEM200A (11744735_a_at) / Fold change /veh TMEM200A (11744735_a_at) / RFU CCDC152 (11751479_a_at) / Fold change /veh CCDC152 (11751479_a_at) / RFU FAM211A (11726209_a_at) / Fold change /veh FAM211A (11726209_a_at) / RFU RGS16 (11746705_a_at) / Fold change /veh RGS16 (11746705_a_at) / RFU VCAN (11755009_s_at) / Fold change /veh VCAN (11755009_s_at) / RFU RHOB (11743442_s_at) / Fold change /veh RHOB (11743442_s_at) / RFU RGS16 (11720943_a_at) / Fold change /veh RGS16 (11720943_a_at) / RFU RGS16 (11720944_at) / Fold change /veh RGS16 (11720944_at) / RFU, VPS4B / Fold change vs veh, VPS4B / RFU, CREB1 / Fold change vs veh, CREB1 / RFU, DNAJC13 / Fold change vs veh, DNAJC13 / RFU, GNAQ / Fold change vs veh, GNAQ / RFU, CDK5R1 / Fold change vs veh, CDK5R1 / RFU, ZRANB3 / Fold change vs veh, ZRANB3 / RFU, CUL4A / Fold change vs veh, CUL4A / RFU, CCNY / Fold change vs veh, CCNY / RFU, UFL1 / Fold change vs veh, UFL1 / RFU, COG3 / Fold change vs veh, COG3 / RFU, DIAPH2 / Fold change vs veh, DIAPH2 / RFU, SKA2 / Fold change vs veh, SKA2 / RFU, AFF3 / Fold change vs veh, AFF3 / RFU, LMF1 / Fold change vs veh, LMF1 / RFU, IPO11 / Fold change vs veh, IPO11 / RFU, DFFB / Fold change vs veh, DFFB / RFU, FOXP1 / Fold change vs veh, FOXP1 / RFU, CARD8 / Fold change vs veh, CARD8 / RFU, STRN3 / Fold change vs veh, STRN3 / RFU, ADK / Fold change vs veh, ADK / RFU, RASSF2 / Fold change vs veh, RASSF2 / RFU, WIPF1 / Fold change vs veh, WIPF1 / RFU, LARP1B / Fold change vs veh, LARP1B / RFU, RASA1 / Fold change vs veh, RASA1 / RFU, RB1 / Fold change vs veh, RB1 / RFU, PPFIA1 / Fold change vs veh, PPFIA1 / RFU, MAT2A / Fold change vs veh, MAT2A / RFU, CCT5 / Fold change vs veh, CCT5 / RFU, WDR92 / Fold change vs veh, WDR92 / RFU, CUX1 / Fold change vs veh, CUX1 / RFU, TTC7A / Fold change vs veh, TTC7A / RFU, TMEM135 / Fold change vs veh, TMEM135 / RFU, DEPTOR / Fold change vs veh, DEPTOR / RFU, CPM / Fold change vs veh, CPM / RFU, DNAJB6 / Fold change vs veh, DNAJB6 / RFU, CACNA2D3 / Fold change vs veh, CACNA2D3 / RFU, DTX4 / Fold change vs veh, DTX4 / RFU, TFCP2 / Fold change vs veh, TFCP2 / RFU, GMCL1 /// GMCL1P1 / Fold change vs veh, GMCL1 /// GMCL1P1 / RFU, AEBP2 / Fold change vs veh, AEBP2 / RFU, SNHG1 /// SNORD22 /// SNORD25 /// SNORD26 /// SNORD27 /// SNORD28 /// SNORD29 /// SNORD31 / Fold change vs veh, SNHG1 /// SNORD22 /// SNORD25 /// SNORD26 /// SNORD27 /// SNORD28 /// SNORD29 /// SNORD31 / Fold change (Aza/veh), C12orf56 (ProbeSet 11735607_a_at) / Fold change (ACY-1035/veh), C12orf56 (ProbeSet 11735607_a_at) / Fold change (Aza/veh), FGFR1OP (ProbeSet 11751329_s_at) / Fold change (ACY-1035/veh), FGFR1OP (ProbeSet 11751329_s_at) / Fold change (Aza/veh), VPS36 (ProbeSet 11739960_a_at) / Fold change (ACY-1035/veh), VPS36 (ProbeSet 11739960_a_at) / RFU SYPL1 (11715823_x_at) / Fold change /veh SYPL1 (11715823_x_at) / RFU IGFBP7 (11715501_s_at) / Fold change /veh IGFBP7 (11715501_s_at) / RFU REEP3 (11722064_at) / Fold change /veh REEP3 (11722064_at) / RFU IGLL1 (11728026_x_at) / Fold change /veh IGLL1 (11728026_x_at): dose or concentration left out as unconfirmed
Settings: ProbeSet 11756954_s_at; LIST B

## Nc1ccc(-c2cccs2)cc1NC(=O)c1ccc2c(c1)cc(C1CC1)n2CCN1CCOCC1 [ACY-1035]
  Fold change vs veh, ZEB2: 0.85
